Measurements: ChEMBL document CHEMBL5154810, “Development of Potent Immune Modulators Targeting Stimulator of Interferon Genes Receptor” (J Med Chem, 2022)
The source made the active and inactive calls. No cut-off for these calls is given here.

Columns and labels:
[1] = Activation of IRF-mediated immune response in human THP1-Dual KO-STING cells co-expressing ISRE reporter assessed as normalized luciferase gene expression by measuring relative luciferase units at 50 uM incubated for 24 hrs by QUANTI Luc based microplate reader method; assay type: functional
THP1-Dual = experiment: Cytotoxicity against human wild type THP1-Dual cells assessed as residual cell viability by CellTiter96 Aqueous One Solution Cell Proliferation Assay; assay type: functional; parameters: concentration or dose not given beside the values
[2] = molecular target: Stimulator of interferon genes protein (Homo sapiens, UniProt Q86WV6); conditions: THP1-Dual, filed as activator, dose 50.0 µM, time 24.0 hrs
Chain of Stimulator of interferon genes protein (Q86WV6 whole entry): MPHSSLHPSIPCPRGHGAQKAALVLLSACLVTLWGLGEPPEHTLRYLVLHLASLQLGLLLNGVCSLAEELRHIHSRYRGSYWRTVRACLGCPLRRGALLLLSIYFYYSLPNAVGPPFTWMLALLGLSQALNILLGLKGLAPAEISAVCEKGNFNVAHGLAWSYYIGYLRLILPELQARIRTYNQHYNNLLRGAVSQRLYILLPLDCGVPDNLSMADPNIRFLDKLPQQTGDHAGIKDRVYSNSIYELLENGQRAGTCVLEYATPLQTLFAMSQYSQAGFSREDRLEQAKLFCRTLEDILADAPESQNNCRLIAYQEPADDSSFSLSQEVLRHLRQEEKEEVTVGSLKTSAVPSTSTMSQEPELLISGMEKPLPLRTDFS

[3] = Cytotoxicity against human THP1-Dual KO-STING cells assessed as residual cell viability by CellTiter96 Aqueous One Solution Cell Proliferation Assay; assay type: functional; parameters: concentration or dose not given beside the values
[4] = AUClast in BALB/c mouse at 3 mg/kg, iv by LC-MS/MS analysis; assay type: ADME, organism-based; parameters: time 0 - last, dose 3 mg/kg, route iv; conditions: in vivo
[5] = Volume of distribution at steady state in BALB/c mouse at 3 mg/kg, iv by LC-MS/MS analysis; assay type: ADME, organism-based; conditions: in vivo, read-out: Vdss
[6] = Terminal half life in BALB/c mouse at 3 mg/kg, iv by LC-MS/MS analysis; assay type: ADME, organism-based; conditions: in vivo, read-out: beta t1/2 (converted)
[7] = AUCinfinity in BALB/c mouse at 3 mg/kg, iv by LC-MS/MS analysis; assay type: ADME, organism-based; parameters: time infinity, dose 3 mg/kg, route iv; conditions: BALB/c, in vivo
[8] = Clearance in BALB/c mouse at 3 mg/kg, iv by LC-MS/MS analysis; assay type: ADME, organism-based; conditions: BALB/c, in vivo
RAW264.7 = experiment: Activation of NF-kappaB mediated pro-inflammatory effector proteins in mouse RAW264.7 cells at 100 to 500 nM for incubated for 3 hrs by western blot analysis; assay type: cell-based; conditions: filed as activator, dose 100-500 nM
[9] = molecular target: Nuclear factor NF-kappa-B complex (Homo sapiens) (UniProt Q00653+P19838+Q04206); experiment: Activation of NF-kappaB mediated pro-inflammatory effector proteins in human THP-1 cells at 2 to 10 nM incubated for 4 hrs by western blot analysis; assay type: cell-based; conditions: filed as activator, dose 2-10 nM
Chain of Nuclear factor NF-kappa-B complex (Homo sapiens) (P19838 whole entry, looked up): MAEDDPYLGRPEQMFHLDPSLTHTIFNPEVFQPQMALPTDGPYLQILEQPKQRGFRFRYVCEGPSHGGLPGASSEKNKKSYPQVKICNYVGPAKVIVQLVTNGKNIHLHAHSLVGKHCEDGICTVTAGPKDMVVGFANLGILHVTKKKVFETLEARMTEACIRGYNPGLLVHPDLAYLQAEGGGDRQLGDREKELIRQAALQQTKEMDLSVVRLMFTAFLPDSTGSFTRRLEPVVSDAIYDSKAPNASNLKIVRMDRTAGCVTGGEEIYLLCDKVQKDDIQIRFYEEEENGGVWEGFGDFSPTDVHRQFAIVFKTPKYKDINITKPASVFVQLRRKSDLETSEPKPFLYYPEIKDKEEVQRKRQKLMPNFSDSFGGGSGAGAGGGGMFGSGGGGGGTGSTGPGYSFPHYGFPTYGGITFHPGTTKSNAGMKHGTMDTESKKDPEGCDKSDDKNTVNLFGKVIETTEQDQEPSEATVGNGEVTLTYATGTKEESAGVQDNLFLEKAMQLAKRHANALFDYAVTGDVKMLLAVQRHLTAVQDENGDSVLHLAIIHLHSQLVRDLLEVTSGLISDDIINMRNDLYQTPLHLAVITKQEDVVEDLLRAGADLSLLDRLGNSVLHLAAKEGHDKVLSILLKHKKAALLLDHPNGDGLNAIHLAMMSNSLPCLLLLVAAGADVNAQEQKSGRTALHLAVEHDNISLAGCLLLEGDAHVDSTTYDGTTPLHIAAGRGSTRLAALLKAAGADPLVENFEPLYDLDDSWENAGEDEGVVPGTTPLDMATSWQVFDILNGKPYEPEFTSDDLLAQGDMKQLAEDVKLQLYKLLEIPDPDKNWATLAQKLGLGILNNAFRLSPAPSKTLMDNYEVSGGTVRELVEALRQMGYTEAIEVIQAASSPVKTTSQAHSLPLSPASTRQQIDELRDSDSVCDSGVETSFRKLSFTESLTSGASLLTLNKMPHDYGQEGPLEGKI
Chain of Nuclear factor NF-kappa-B complex (Homo sapiens) (Q00653 whole entry, looked up): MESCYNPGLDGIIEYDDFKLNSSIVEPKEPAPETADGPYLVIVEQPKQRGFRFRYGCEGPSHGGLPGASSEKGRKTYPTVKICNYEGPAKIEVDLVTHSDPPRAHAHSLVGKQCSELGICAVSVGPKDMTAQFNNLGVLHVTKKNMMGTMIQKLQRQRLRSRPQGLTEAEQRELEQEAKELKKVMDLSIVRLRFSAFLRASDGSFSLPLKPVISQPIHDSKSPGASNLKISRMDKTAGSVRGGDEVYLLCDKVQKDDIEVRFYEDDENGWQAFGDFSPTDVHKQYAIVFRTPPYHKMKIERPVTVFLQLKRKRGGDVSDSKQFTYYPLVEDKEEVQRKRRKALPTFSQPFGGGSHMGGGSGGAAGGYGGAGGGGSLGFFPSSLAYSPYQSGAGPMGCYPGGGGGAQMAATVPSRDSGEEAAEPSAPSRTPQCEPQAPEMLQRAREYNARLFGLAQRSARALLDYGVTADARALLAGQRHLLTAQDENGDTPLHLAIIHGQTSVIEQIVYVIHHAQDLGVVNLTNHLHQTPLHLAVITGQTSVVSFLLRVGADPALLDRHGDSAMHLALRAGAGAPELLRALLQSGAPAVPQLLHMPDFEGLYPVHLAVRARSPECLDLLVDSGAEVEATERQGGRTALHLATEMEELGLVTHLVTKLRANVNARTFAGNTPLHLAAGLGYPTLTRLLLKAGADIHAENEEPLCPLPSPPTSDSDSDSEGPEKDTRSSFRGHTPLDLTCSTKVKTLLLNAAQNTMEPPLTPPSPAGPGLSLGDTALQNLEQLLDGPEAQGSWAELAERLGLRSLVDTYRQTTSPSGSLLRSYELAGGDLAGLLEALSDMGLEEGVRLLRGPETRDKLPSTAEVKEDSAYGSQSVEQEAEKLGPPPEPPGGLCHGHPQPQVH
Chain of Nuclear factor NF-kappa-B complex (Homo sapiens) (Q04206 whole entry, looked up): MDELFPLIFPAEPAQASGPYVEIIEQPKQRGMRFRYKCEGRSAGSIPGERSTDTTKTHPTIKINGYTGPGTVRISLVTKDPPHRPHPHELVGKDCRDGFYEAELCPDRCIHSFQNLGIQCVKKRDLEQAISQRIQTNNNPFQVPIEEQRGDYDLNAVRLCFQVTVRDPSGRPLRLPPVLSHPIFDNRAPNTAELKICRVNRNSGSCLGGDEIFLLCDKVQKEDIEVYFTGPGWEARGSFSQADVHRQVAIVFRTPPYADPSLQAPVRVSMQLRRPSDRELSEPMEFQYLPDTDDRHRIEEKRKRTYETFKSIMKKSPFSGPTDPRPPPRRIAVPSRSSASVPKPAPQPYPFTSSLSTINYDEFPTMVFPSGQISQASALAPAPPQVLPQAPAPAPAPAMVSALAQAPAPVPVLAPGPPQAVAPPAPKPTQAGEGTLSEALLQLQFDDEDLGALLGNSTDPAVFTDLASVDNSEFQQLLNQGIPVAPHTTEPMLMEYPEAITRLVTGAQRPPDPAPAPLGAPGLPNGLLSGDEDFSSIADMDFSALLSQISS

[10] = Induction of IP-10 secretion in human THP-1 cells assessed as maximal efficacy by ELISA relative to control; assay type: functional

Row | SMILES | RLU [2] | RLU [1] | Activity (THP1-Dual) [%] | Activity [3] [%] | further results
1 | CC(C)(C)OC(=O)NCCCCn1c(NC(=O)c2cc3ccccc3o2)nc2cc(C(N)=O)ccc21 | 0.8 | 0.7 | 92.7 | 98 | –
2 | CCn1nc(C)cc1C(=O)/N=c1\[nH]c2cc(C(N)=O)ccc2n1C[C@@H](O)c1ccccc1 | 2 | 0.7 | 96 | 76.9 | –
3 | CCn1nc(C)cc1C(=O)Nc1nc2cc(C(N)=O)ccc2n1CCCCNC(=O)c1ccn[nH]1 | 0.9 | 1.3 | 99.9 | 109.2 | –
4 | Nc1nc2c(ncn2[C@@H]2O[C@@H]3COP(=O)(O)O[C@H]4[C@@H](O)[C@H](n5cnc6c(N)ncnc65)O[C@@H]4COP(=O)(O)O[C@@H]2[C@@H]3O)c(=O)[nH]1 | – | – | 76.5 | – | –
5 | CCn1nc(C)cc1C(=O)Nc1nc2cc(C(N)=O)ccc2n1CCCCNC(=O)c1cccnc1 | 1 | 1.1 | 98.9 | 96.4 | –
6 | CCn1nc(C)cc1C(=O)Nc1nc2cc(C(N)=O)ccc2n1CCCCNC(=O)OC(C)(C)C | 21 | 0.6 | 97.6 | 78.4 | –
7 | CCn1nc(C)cc1C(=O)Nc1nc2cc(C(N)=O)cc(OCCCN)c2n1C | 101 | 1 | 88 | 110 | –
8 | C=CCn1nc(C(=O)Nc2nc3cc(C(N)=O)ccc3n2CCCCn2c(NC(=O)c3cc(C)n(CC=C)n3)nc3cc(C(N)=O)ccc32)cc1C | 0.8 | 0.9 | 108.6 | 108.3 | –
9 | CCn1nc(C(F)(F)F)cc1C(=O)Nc1nc2cc(C(N)=O)ccc2n1C[C@@H](O)c1ccccc1 | 0.7 | 1 | 88.1 | 91 | –
10 | CCn1nc(C)cc1C(=O)NCCCCn1c(NC(=O)c2cc(C)nn2CC)nc2cc(C(N)=O)ccc21 | 104 | 0.9 | 68.2 | 88.2 | AUC(0-t) [4]: 310 ng·h/mL; Vd [5]: 1.8 L/kg; half-life [6]: 35.4 min; AUC(0-inf) [7]: 320 ng·h/mL; clearance [8]: 158 mL/min/kg
11 | NC(=O)c1ccc2c(c1)nc(NC(=O)c1cc3ccccc3o1)n2C[C@@H](O)c1ccccc1 | 0.8 | 0.8 | 90.2 | 105.5 | –
12 | CCn1nc(C)cc1C(=O)Nc1nc2cc(C(N)=O)cc(OCCCNC(=O)OC(C)(C)C)c2n1C | 127 | 0.8 | 80.1 | 110 | –
13 | CCn1nc(C)cc1C(=O)Nc1nc2cc(C(N)=O)ccc2n1CCCCNC(=O)c1cc(C)nn1C | 93.3 | 0.9 | 66 | 105.4 | –
14 | CC(C)(C)OC(=O)NCCCCn1c(NC(=O)c2ccoc2)nc2cc(C(N)=O)ccc21 | 0.9 | 1 | 90.3 | 96.2 | –
15 | CCn1nc(C)cc1C(=O)Nc1nc2cc(C(N)=O)ccc2n1CCCCNC(=O)C(C)(C)C | 4.8 | 0.4 | 103.7 | 58.6 | –
16 | Cc1cc(C(=O)Nc2nc3cc(C(N)=O)ccc3n2CCCCNC(=O)OC(C)(C)C)n(C(C)C)n1 | 0.9 | 0.8 | 97.1 | 100.1 | –
17 | CCn1nc(C)cc1C(=O)/N=c1\[nH]c2cc(C(N)=O)cc(OC)c2n1C/C=C/Cn1/c(=N/C(=O)c2cc(C)nn2CC)[nH]c2cc(C(N)=O)cc(OCCCN3CCOCC3)c21 | 68.6 | 0.7 | 83.1 | – | Activity (RAW264.7): Active; Activity [9]: Active; Emax [10]: 136%
18 | CCn1nc(C)cc1C(=O)Nc1nc2cc(C(N)=O)ccc2n1CCCCNC(=O)c1ccccc1 | 7 | 0.2 | 27.4 | 64.2 | –
19 | CCn1nc(C)cc1C(=O)Nc1nc2cc(C(N)=O)ccc2n1CCCCNC(C)=O | 0.4 | 0.3 | 40.8 | 74.9 | –
20 | C=CCn1nc(C(=O)Nc2nc3cc(C(N)=O)ccc3n2CCCCNC(=O)OC(C)(C)C)cc1C | 0.9 | 1.4 | 96.1 | 103.9 | –

Second part, led by results:

Row | RLU [2] | SMILES | RLU [1] | Activity (THP1-Dual) [%] | Activity [3] [%] | further results
21 | 16.3 | CCn1nc(C)cc1C(=O)Nc1nc2cc(C(N)=O)ccc2n1CCCCCNC(=O)OC(C)(C)C | 0.6 | 54.9 | 87 | –
22 | 1.1 | Cc1cc(C(=O)Nc2nc3cc(C(N)=O)ccc3n2CCCCNC(=O)OC(C)(C)C)n(C(C)(C)C)n1 | 1.2 | 83.5 | 82.7 | –
23 | 0.6 | CCn1nc(C)cc1C(=O)Nc1nc2cc(C(=O)O)ccc2n1CCCCn1c(NC(=O)c2cc(C)nn2CC)nc2cc(C(=O)O)ccc21 | 0.6 | 113.1 | 101.6 | –
24 | 0.4 | NC(=O)c1ccc2c(c1)nc(NC(=O)c1nn(C3CCCCO3)c3ccccc13)n2C[C@@H](O)c1ccccc1 (stereo partly specified) | 0.9 | 95.8 | 93.4 | –
25 | 2.7 | CCn1nc(C)cc1C(=O)Nc1nc2cc(C(N)=O)cc(OC)c2n1CCCCNC(=O)OC(C)(C)C | 0.5 | 72.1 | 90 | –
26 | 20 | CCn1nc(C)cc1C(=O)Nc1nc2cc(C(N)=O)ccc2n1CCCNC(=O)OC(C)(C)C | 0.9 | 90.2 | 88 | –
27 | 0.9 | NC(=O)c1ccc2c(c1)nc(NC(=O)c1n[nH]c3ccccc13)n2C[C@@H](O)c1ccccc1 | 1.3 | 91.2 | 100.9 | –
28 | 13.7 | CCn1nc(C)cc1C(=O)Nc1nc2cc(C(N)=O)cc(OC)c2n1C/C=C/CNC(=O)OC(C)(C)C | 0.7 | 89.5 | 87.7 | –
29 | 13.7 | CCn1nc(C)cc1C(=O)NCCCn1c(NC(=O)c2cc(C)nn2CC)nc2cc(C(N)=O)ccc21 | 0.4 | 40.6 | 82.3 | –
30 | 0.9 | NC(=O)c1ccc2c(c1)nc(NC(=O)c1cc3ccccc3o1)n2CCCCn1c(NC(=O)c2cc3ccccc3o2)nc2cc(C(N)=O)ccc21 | 1.3 | 103 | 96.8 | –
31 | 99.1 | CCn1nc(C)cc1C(=O)NCCCOc1cc(C(N)=O)cc2nc(NC(=O)c3cc(C)nn3CC)n(C)c12 | 0.9 | 94 | 113 | –
32 | 0.8 | Cn1cc(C(=O)Nc2nc3cc(C(N)=O)ccc3n2C[C@@H](O)c2ccccc2)c(C(F)(F)F)n1 | 1.1 | 89.4 | 92.4 | –
33 | 0.5 | NC(=O)c1ccc2c(c1)nc(NC(=O)c1ccoc1)n2C[C@@H](O)c1ccccc1 | 0.9 | 88 | 94 | –
34 | 0.8 | Cn1cc(C(=O)Nc2nc3cc(C(N)=O)ccc3n2CCCCNC(=O)OC(C)(C)C)c(C(F)(F)F)n1 | 0.9 | 91.9 | 90.6 | –
35 | 0.8 | CCn1nc(C)cc1C(=O)Nc1nc2cc(C(=O)OC)ccc2n1CCCCn1c(NC(=O)c2cc(C)nn2CC)nc2cc(C(=O)OC)ccc21 | 0.8 | 122 | 117.9 | –
36 | 0.8 | CCn1nc(C(F)(F)F)cc1C(=O)Nc1nc2cc(C(N)=O)ccc2n1CCCCNC(=O)OC(C)(C)C | 1.1 | 99.4 | 89.9 | –
37 | 7.7 | Cn1cc(C(=O)Nc2nc3cc(C(N)=O)ccc3n2CCCCn2c(NC(=O)c3cn(C)nc3C(F)(F)F)nc3cc(C(N)=O)ccc32)c(C(F)(F)F)n1 | 0.8 | 96.7 | 115 | –
38 | 101 | CCn1nc(C)cc1C(=O)Nc1nc2cc(C(N)=O)cc(OC)c2n1C/C=C/Cn1c(NC(=O)c2cc(C)nn2CC)nc2cc(C(N)=O)cc(OCCCN)c21 | 0.7 | – | – | –
39 | 1 | CCn1nc(C)cc1C(=O)NCCCCCn1c(NC(=O)c2cc(C)nn2CC)nc2cc(C(N)=O)ccc21 | 0.3 | 44.9 | 77.5 | –
40 | 0.8 | CCn1nc(C)cc1C(=O)Nc1nc2cc(C(N)=O)ccc2n1CCCCN | 1 | 95.2 | 85.5 | –
41 | 0.9 | Cc1cc(C(=O)Nc2nc3cc(C(N)=O)ccc3n2CCCCNC(=O)OC(C)(C)C)n(C)n1 | 1.2 | 96.7 | 108.2 | –
